# Assay: 40-day study in ob/ob mice on high fat diet: body weight and fat, metabolic parameters, liver indicators
# Assay type: in vivo, C57 black ob/ob mice
# Conditions: day 43
# Protocol: Forty C57 black ob/ob mice were allocated to five groups of eight for study over 40 days as follows:
# High fat diet—no treatment;
# High fat diet—100 mg/kg/OD PYN22;
# High fat diet—300 mg/kg/OD PYN22; • High fat diet—3 mg/kg/OD Rosiglitazone (positive control).
# Mice were weighed twice per week and food intake measured daily throughout the study. Any laxative effects of treatments were visually examined and recorded.
# Oral glucose tolerance tests were conducted on Day 7, Day 21 and Day 35.
# Energy expenditure was measured at Day 14.
# Fasting plasma insulin and lipids were measured on Days 7, 21 and 35.
# Three days before sacrifice, 100 ul blood samples were taken from all animals to provide plasma glucose, insulin, free fatty acid, triglycerides, cholesterol and HDL-cholesterol.
# At sacrifice, body mass and fat mass were calculated; the same parameters were also calculated for liver, heart and white adipose tissues.
smiles,measurement,value
CN(CCOc1ccc(CC2SC(=O)NC2=O)cc1)c1ccccn1 (centres unmarked) [Rosiglitazone],actual liver weight (FIG. 11C),no effect
same,relative (% body weight) liver weight (FIG. 11D),no effect

# Source: patent US8524291B2, “Anti-obesity product and its method of preparation” (Chongquing Institute of Ecological Materia Medica Co. Ltd., priority 2006, dated 2013)
